# Measurements taken from patent publication US6730293B1, “Compositions and methods for treating inflammatory diseases of the skin” (CellGate, Inc., priority 1999, dated 2004).
# Peptide text beside a SMILES is read from it. * marks the point of attachment. FITC = O=C1OC2(c3ccc(O)cc3Oc3cc(O)ccc32)c2ccc(NC(=S)*)cc21; Ahx = NCCCCCC(=O)O
# How the values were obtained:
# [1] = test system: Jurkat cells; experiment: Cellular uptake kinetics assay (Michaelis-Menton); assay type: cell-based, human; conditions: for Vmax: Jurkat cells, 30, 60, 120, 240 seconds; for Km values, fold greater than that found for Tat49-57: discussion; for rate of cell entry, fold faster than Tat47-59: from Km values
# Procedure: Cellular Uptake Kinetics Assay. […] The reactions were quenched by diluting the samples into 2% FCS/PBS (5 mL). The assays were then worked up and analyzed by fluorescent flow cytometry as previously described.
# [2] = test system: Jurkat cells; experiment: FACS cellular uptake assay of fluorescently labeled peptides and peptoids; assay type: cell-based, human; conditions: for additional loss of intracellular fluorescence from the one amino acid truncated analogs / loss of intracellular fluorescence compared to the parent sequence (Tat49-57): 15 min at 23° C.; for cellular uptake compared with Tat49-57: 23° C., 2% FCS
# Procedure: Cellular Uptake Assay. […] The accuracy of this method for determining concentration was established by weighing selected samples and dissolving them in a known amount of PBS buffer. The concentrations determined by UV spectroscopy correlated with the amounts weighed out manually. Jurkat cells (human T cell line), murine B cells (CH27), or human PBL cells were grown in 10% fetal calf serum and DMEM and each of these were used for cellular uptake experiments. […] The microtiter plates were centrifuged and the cells were isolated, washed with cold PBS (3×250 μL), incubated with 0.05% trypsin/0.53 mM EDTA at 37° C. for 5 min, washed with cold PBS, and resuspended in PBS containing 0.1% propidium iodide. The cells were analyzed using fluorescent flow cytometry (FACScan, Becton Dickinson) and cells staining with propidium iodide were excluded from the analysis. The data presented is the mean fluorescent signal for the 5000 cells collected.
# Inhibition of Cellular Uptake with Sodium Azide. The assays were performed as previously described with the exception that the cells used were preincubated for 30 min with 0.5% sodium azide in 2% FCS/PBS buffer prior to the addition of fluorescent peptides and the cells were washed with 0.5% sodium azide in PBS buffer. All of the cellular uptake assays were run in parallel in the presence and absence of sodium azide.
# To determine the structural requirements for the cellular uptake of short arginine-rich peptides, a series of fluorescently-labeled truncated analogues of Tat49-57 were synthesized using standard solid-phase chemistry. See, e.g., Atherton, E.et al. SOLID-PHASE PEPTIDE […] (IRL: Oxford, Engl. 1989). A fluorescein moiety was attached via an aminohexanoic acid spacer on the amino termini. The ability of these fluorescently labeled peptides to enter Jurkat cells was then analyzed using fluorescent activated cell sorting (FACS) ( ). The peptide constructs tested were Tat49-57 (Fl-ahx-[…]): Tat49-56 (Fl-ahx-[…]), Tat49-55 (Fl-ahx-RKKRRQR), Tat50-57 (Fl-ahx-[…]), and […] (Fl-ahx-KRRQRRR). Differentiation between cell surface binding and internalization was accomplished throughout by running a parallel set of assays in the presence and absence of sodium azide. Because sodium azide inhibits energy-dependent cellular uptake but not cell surface binding, the difference in fluorescence between the two assays provided the amount of fluorescence resulting from internalization.
# [3] = test system: skin of nude mice; experiment: Penetration of taxol-biotinylated D-arginine conjugates into skin of nude mice; assay type: in vivo; conditions: back of nude mice, 1 mM-100 μM in PBS, 30, 60, 120 minutes
# Procedure: Slides were analyzed by fluorescent microscopy.
smiles,measurement,setting,value
"N=C(N)NCCC[C@@H](NC(=O)[C@@H](CCCNC(=N)N)NC(=O)[C@@H](CCCNC(=N)N)NC(=O)[C@@H](CCCNC(=N)N)NC(=O)[C@@H](CCCNC(=N)N)NC(=O)[C@@H](CCCNC(=N)N)NC(=O)[C@@H](CCCNC(=N)N)NC(=O)[C@@H](CCCNC(=N)N)NC(=O)[C@@H](CCCNC(=N)N)NC(=O)CCCCCNC(=S)Nc1ccc2c(c1)C(=O)OC21c2ccc(O)cc2Oc2cc(O)ccc21)C(N)=O (single isomer, unassigned) [R9]",Vmax,[1],0.38
same,"Km values, fold greater than that found for Tat49-57",[1],30 fold
same,"Km values, fold greater than that found for Tat49-57",[1]; listed as r9,100 fold
same,"rate of cell entry, fold faster than Tat47-59",[1],~20 fold
same,cellular uptake of peptoids compared with d-arginine oligomers / other peptoids,[2]; 4 min at 23° C.,comparable to N-btg9
same,relative order of uptake,[2]; 4 min at 23° C.,N-hxg9 (6 methylene)>N-btg9 (4 methylene)>r9 (3 methylene)>N-arg9 (3 methylene)>N-etg9 (2 methylene)
C[C@H](NC(=O)[C@H](CCCNC(=N)N)NC(=O)[C@H](CCCNC(=N)N)NC(=O)[C@H](CCCCN)NC(=O)[C@H](CCCCN)NC(=O)[C@H](CCCNC(=N)N)NC(=O)CCCCCNC(=S)Nc1ccc2c(c1)C(=O)OC21c2ccc(O)cc2Oc2cc(O)ccc21)C(=O)N[C@@H](CCCNC(=N)N)C(=O)N[C@@H](CCCNC(=N)N)C(=O)N[C@@H](CCCNC(=N)N)C(N)=O [A-54] ({FITC-Ahx}-RKKRRARRR-NH2),loss of cellular uptake on alanine substitution of Tat49-57,[2]; 12 min at 23° C.,modest decrease
"CC[C@H](C)[C@H](NC(=O)[C@H](CCCCN)NC(=O)[C@@H](NC(=O)[C@H](CCC(N)=O)NC(=O)[C@H](CCCNC(=N)N)NC(=O)CCCCCNC(=S)Nc1ccc2c(c1)C(=O)OC21c2ccc(O)cc2Oc2cc(O)ccc21)[C@@H](C)CC)C(=O)N[C@@H](Cc1c[nH]c2ccccc12)C(=O)N[C@@H](Cc1ccccc1)C(=O)N[C@@H](CCC(N)=O)C(=O)N[C@@H](CC(N)=O)C(=O)N[C@@H](CCCNC(=N)N)C(=O)N[C@@H](CCCNC(=N)N)C(=O)N[C@@H](CCSC)C(=O)N[C@@H](CCCCN)C(=O)N[C@@H](Cc1c[nH]c2ccccc12)C(=O)N[C@@H](CCCCN)C(=O)N[C@@H](CCCCN)C(N)=O [Antennapedia43-58, reference compound]",Vmax,[1],0.41
same,"rate of cell entry, fold faster than Tat47-59",[1],approximately 2 fold
CC(=O)O[C@H]1C(=O)[C@@]2(C)[C@H]([C@H](OC(=O)c3ccccc3)[C@]3(O)C[C@H](OC(=O)[C@H](OC(=O)NCCCC[C@H](NC(=O)[C@@H](CCCNC(=N)N)NC(=O)[C@@H](CCCNC(=N)N)NC(=O)[C@@H](CCCNC(=N)N)NC(=O)[C@@H](CCCNC(=N)N)NC(=O)[C@@H](CCCNC(=N)N)NC(=O)CCCCCNC(=O)CCCC[C@@H]4SC[C@@H]5NC(=O)N[C@@H]54)C(N)=O)[C@@H](NC(=O)c4ccccc4)c4ccccc4)C(C)=C1C3(C)C)[C@]1(OC(C)=O)CO[C@@H]1C[C@@H]2O [B-aca-r5-K-taxol],penetration into skin (fluorescent streptavidin staining),[3],very little uptake
CC(=O)O[C@H]1C(=O)[C@@]2(C)[C@H]([C@H](OC(=O)c3ccccc3)[C@]3(O)C[C@H](OC(=O)[C@H](OC(=O)NCCCC[C@H](NC(=O)[C@@H](CCCNC(=N)N)NC(=O)[C@@H](CCCNC(=N)N)NC(=O)[C@@H](CCCNC(=N)N)NC(=O)[C@@H](CCCNC(=N)N)NC(=O)[C@@H](CCCNC(=N)N)NC(=O)[C@@H](CCCNC(=N)N)NC(=O)[C@@H](CCCNC(=N)N)NC(=O)CCCCCNC(=O)CCCC[C@@H]4SC[C@@H]5NC(=O)N[C@@H]54)C(N)=O)[C@@H](NC(=O)c4ccccc4)c4ccccc4)C(C)=C1C3(C)C)[C@]1(OC(C)=O)CO[C@@H]1C[C@@H]2O [B-aca-r7-K-taxol],penetration into skin (fluorescent streptavidin staining),[3],effectively entered into and across the epidermis and into the dermis
CC(=O)O[C@H]1C(=O)[C@@]2(C)[C@H]([C@H](OC(=O)c3ccccc3)[C@]3(O)C[C@H](OC(=O)[C@H](OC(=O)NCCCC[C@H](NC(=O)[C@@H](CCCNC(=N)N)NC(=O)[C@@H](CCCNC(=N)N)NC(=O)[C@@H](CCCNC(=N)N)NC(=O)[C@@H](CCCNC(=N)N)NC(=O)[C@@H](CCCNC(=N)N)NC(=O)[C@@H](CCCNC(=N)N)NC(=O)[C@@H](CCCNC(=N)N)NC(=O)[C@@H](CCCNC(=N)N)NC(=O)[C@@H](CCCNC(=N)N)NC(=O)CCCCCNC(=O)CCCC[C@@H]4SC[C@@H]5NC(=O)N[C@@H]54)C(N)=O)[C@@H](NC(=O)c4ccccc4)c4ccccc4)C(C)=C1C3(C)C)[C@]1(OC(C)=O)CO[C@@H]1C[C@@H]2O [B-aca-r9-K-taxol],penetration into skin (fluorescent streptavidin staining),[3],effectively entered into and across the epidermis and into the dermis
"N=C(N)NCCC[C@H](NC(=O)[C@H](CCC(N)=O)NC(=O)[C@H](CCCNC(=N)N)NC(=O)[C@H](CCCNC(=N)N)NC(=O)[C@H](CCCCN)NC(=O)[C@H](CCCCN)NC(=O)[C@H](CCCNC(=N)N)NC(=O)CCCCCNC(=S)Nc1ccc2c(c1)C(=O)OC21c2ccc(O)cc2Oc2cc(O)ccc21)C(N)=O [Tat49-55, Fl-ahx-RKKRRQR] ({FITC-Ahx}-RKKRRQR-NH2)",additional loss of intracellular fluorescence from the one amino acid truncated analogs,[2],60%
N=C(N)NCCC[C@H](NC(=O)[C@H](CCCNC(=N)N)NC(=O)[C@H](CCC(N)=O)NC(=O)[C@H](CCCNC(=N)N)NC(=O)[C@H](CCCNC(=N)N)NC(=O)[C@H](CCCCN)NC(=O)[C@H](CCCCN)NC(=O)[C@H](CCCNC(=N)N)NC(=O)CCCCCNC(=S)Nc1ccc2c(c1)C(=O)OC21c2ccc(O)cc2Oc2cc(O)ccc21)C(N)=O [Tat49-56] ({FITC-Ahx}-RKKRRQRR-NH2),loss of intracellular fluorescence compared to the parent sequence (Tat49-57),[2],80%
"N=C(N)NCCC[C@H](NC(=O)[C@H](CCCNC(=N)N)NC(=O)[C@H](CCCNC(=N)N)NC(=O)[C@H](CCC(N)=O)NC(=O)[C@H](CCCNC(=N)N)NC(=O)[C@H](CCCNC(=N)N)NC(=O)[C@H](CCCCN)NC(=O)[C@H](CCCCN)NC(=O)[C@H](CCCNC(=N)N)NC(=O)CCCCCNC(=S)Nc1ccc2c(c1)C(=O)OC21c2ccc(O)cc2Oc2cc(O)ccc21)C(N)=O [Tat49-57, reference compound]",Vmax,[1],0.38
same,cellular uptake compared with Tat49-57,[2],between that of R6 and R7
N=C(N)NCCC[C@H](NC(=O)[C@H](CCCNC(=N)N)NC(=O)[C@H](CCCNC(=N)N)NC(=O)[C@H](CCC(N)=O)NC(=O)[C@H](CCCNC(=N)N)NC(=O)[C@H](CCCNC(=N)N)NC(=O)[C@H](CCCCN)NC(=O)[C@H](CCCCN)NC(=O)CCCCCNC(=S)Nc1ccc2c(c1)C(=O)OC21c2ccc(O)cc2Oc2cc(O)ccc21)C(N)=O [Tat50-57] ({FITC-Ahx}-KKRRQRRR-NH2),loss of intracellular fluorescence compared to the parent sequence (Tat49-57),[2],80%
"N=C(N)NCCC[C@H](NC(=O)[C@H](CCCNC(=N)N)NC(=O)[C@H](CCCNC(=N)N)NC(=O)[C@H](CCC(N)=O)NC(=O)[C@H](CCCNC(=N)N)NC(=O)[C@H](CCCNC(=N)N)NC(=O)[C@H](CCCCN)NC(=O)CCCCCNC(=S)Nc1ccc2c(c1)C(=O)OC21c2ccc(O)cc2Oc2cc(O)ccc21)C(N)=O [Tat51-57, Fl-ahx-KRRQRRR] ({FITC-Ahx}-KRRQRRR-NH2)",additional loss of intracellular fluorescence from the one amino acid truncated analogs,[2],did not further diminish the amount of internalization
N=C(N)NCCC[C@H](NC(=O)[C@H](CCCCN)NC(=O)[C@H](CCCCN)NC(=O)[C@H](CCCNC(=N)N)NC(=O)[C@H](CCCNC(=N)N)NC(=O)[C@H](CCC(N)=O)NC(=O)[C@H](CCCNC(=N)N)NC(=O)[C@H](CCCNC(=N)N)NC(=O)[C@H](CCCNC(=N)N)NC(=O)CCCCCNC(=S)Nc1ccc2c(c1)C(=O)OC21c2ccc(O)cc2Oc2cc(O)ccc21)C(N)=O [Tat57-49],cellular uptake compared with Tat49-57,[2],more effective at entering Jurkat cells then Tat49-57
"N=C(N)NCCC[C@@H](NC(=O)[C@@H](CCCNC(=N)N)NC(=O)[C@@H](CCCNC(=N)N)NC(=O)[C@@H](CCC(N)=O)NC(=O)[C@@H](CCCNC(=N)N)NC(=O)[C@@H](CCCNC(=N)N)NC(=O)[C@@H](CCCCN)NC(=O)[C@@H](CCCCN)NC(=O)[C@@H](CCCNC(=N)N)NC(=O)CCCCCNC(=S)Nc1ccc2c(c1)C(=O)OC21c2ccc(O)cc2Oc2cc(O)ccc21)C(N)=O [d-Tat49-57, Fl-ahx-rkkrrqrrr]",cellular uptake compared with Tat49-57,[2],more effective at entering Jurkat cells then Tat49-57
"N=C(N)NCCC[C@@H](NC(=O)[C@@H](CCCCN)NC(=O)[C@@H](CCCCN)NC(=O)[C@@H](CCCNC(=N)N)NC(=O)[C@@H](CCCNC(=N)N)NC(=O)[C@@H](CCC(N)=O)NC(=O)[C@@H](CCCNC(=N)N)NC(=O)[C@@H](CCCNC(=N)N)NC(=O)[C@@H](CCCNC(=N)N)NC(=O)CCCCCNC(=S)Nc1ccc2c(c1)C(=O)OC21c2ccc(O)cc2Oc2cc(O)ccc21)C(N)=O [d-Tat57-49, Fl-ahx-rrrqrrkkr]",cellular uptake compared with Tat49-57,[2],more effective at entering Jurkat cells then Tat49-57
